Where a SMILES comes first, the peptide text is derived from it.
Tests used:
Format in all cases: cell-based
[1] = tested on: normal human aortic vessel smooth muscle cells (VSMC); experiment: Influence on VSMC growth by Ang II stimulation (WST-8); settings: 48 hours
Experimental: (§1) As to cells, normal human aortic vessel smooth muscle cells (VSMC; Cyro AOSMC (trade name) manufactured by Sanko Junyaku Co.) were used while, as to VY, valyl-tyrosine which was chemically synthesized was used and a calcium channel inhibiting action by VY was confirmed.
When Ang II (angiotensin II) is added to an incubated liquid of VSMC, cell growth thereof is promoted. It has been known to be due to the fact that Ang II is bonded to an AT1 receptor existing on the surface of VSMC, the bonding signal flows in the cells and, as a result, calcium channel opens and calcium ion flows into the cells. Such a mechanism was utilized to conduct the following experiment.
VSMC was pre-incubated for 24 hours on a serum-free medium on a 96-well plate and three kinds of samples—a control to which no additive was added, a sample to which only Ang II was added in a concentration of 1 μM (Ang II (+)) and a sample to which Ang II and VY were added in concentrations of 1 μM and 1 mM, respectively (Ang II(+)VY(+))—were incubated for 48 hours. Then 10 μM of WST-8 was added thereto and amount of water-soluble formazan resulted by color reaction at 37° C. for 3 hours in a CO2 incubator was measured from absorbance at 450 nm whereupon cell growth was measured form the synthesized amount of DNA. The result which was made into a graph is FIG. 14 (effect of VY on Ang II stimulation).
Further, cell growth when concentration of VY added by the same method was made 0 μM, 1 μM, 10 μM, 100 μM and 1 mM was measured. That is, VSMC was pre-incubated on a serum-free medium for 24 hours on a 96-well plate and six kinds of samples—a control where nothing was added and five samples where Ang II was added in a concentration of 1 μM and VY was further added in concentrations 0 μM, 1 μM, 10 μM, 100 μM and 1 mM—were incubated for 48 hours. Then 10 μM WST-8 was added thereto and amount of water-soluble formazan produced by color reaction at 37° C. for 3 hours in a CO2 incubator was determined from absorbance at 450 nm whereupon cell growth was measured from the synthesized amount of DNA. The result which was made into a graph is FIG. 15 (dependency of VY concentration to VSMC growth by Ang II stimulation).
VSMC was pre-incubated in a serum-free-medium for 24 hours on a 96-well plate, then 1 μM of captopril which is an ACE inhibitor was added thereto and incubation was conducted for 48 hours. Then 10 μM WST-8 was added thereto and amount of water-soluble formazan produced by color reaction for 3 hours was determined from absorbance at 450 nm whereupon cell growth was measured from synthesized amount of DNA. The result which was made into a graph is FIG. 16 (influence of ACE inhibitor on Ang II stimulation).

[2] = tested on: normal human aortic vessel smooth muscle cells (VSMC); experiment: Influence on calcium channel agonist (Bay K 8644) stimulation of VSMC growth (WST-8); settings: 48 hours
Experimental: Inflow of calcium ion which is downstream of Ang II stimulation showing a cell growth promoting action was investigated. […] Then 10 μM of WST-8 was added thereto and amount of water-soluble formazan produced by color reaction for 3 hours at 37° C. in a CO2 incubator was determined by absorbance at 450 nm whereupon cell growth was measured from the synthesized amount of DNA.
Then 10 μM of WST-8 was added thereto and amount of water-soluble formazan produced by color reaction for 3 hours at 37° C. in a CO2 incubator was determined by absorbance at 450 nm whereby cell growth was measured from synthesized amount of DNA.

[3] = tested on: normal human aortic vessel smooth muscle cells (VSMC); experiment: Influence of VY on Ang II receptor: VSMC growth with Ang II and saralasin (WST-8); settings: 48 hours, FIG. 17
Experimental: as §1
Influence of VY on Ang II receptor AT1 existing on the surface of VSMC was investigated. That is, VSMC was pre-incubated in a serum-free medium for 24 hours on a 96-well plate and incubation was conducted for 48 hours after 1 μM of Ang II was added, 10 μM of saralasin which is an Ang II antagonist was added, each 1 μM of Ang II and saralasin were added or each 1 μM of Ang II and saralasin and 1 mM of VY were added. Then 10 μM of WST-8 was added thereto and amount of water-soluble formazan formed by color reaction for 3 hours at 37° C. in a CO2 incubator was determined by absorbance at 450 nm whereby cell growth was measured from the synthesized amount of DNA. The result which was made into a graph is FIG. 17 (effect of VY and saralasin (Ang II antagonist) on Ang II stimulation).

[4] = tested on: normal human aortic vessel smooth muscle cells (VSMC); experiment: Influence of VY on VSMC growth in the presence of 5% FBS (Trypan Blue living cell count); settings: VY 0, 50 and 100 μM, 5 v/v % FBS medium, 5 days at 37° C., FIG. 12
Experimental: as §1
VSMC (1×10^5 cell/ml) was pre-incubated for 24 hours in a serum-free medium and transferred to a medium containing 5 v/v % of FBS (fetal bovine serum), 1 w/v % of hEGF (human epidermal growth factor) and 1 w/v % of hEGF-β, then VY was added thereto so as to make its concentrations 0, 50 and 100 μM and incubation of the resulting mixtures was conducted for 5 days at 37° C. in a CO2 incubator. This was stained with Trypan Blue and living cells were counted by a blood corpuscle counter. The result which is made into a graph is FIG. 12 (effect of addition of VY in the presence of 5% FBS).

[5] = tested on: normal human aortic vessel smooth muscle cells (VSMC); experiment: VY toxicity test on VSMC (WST-8); settings: 0 mM or 1 mM VY; 48 hours; serum-free; WST-8 absorbance at 450 nm; FIG. 13
Experimental: as §1
In order to check the toxicity of VY, VSMC was pre-incubated for 24 hours on a serum-free medium on a 96-well plate, 0 mM or 1 mM of VY was added thereto and incubation was conducted for 48 hours. To this was added a solution containing 10 μM of WST-8 (2-(2-methoxy-4-nitrophenyl)-3-(4-nitrophenyl)-5-(2,4-disulfophenyl)-2H-tetrazolium (Cell Counting Kit-8; manufactured by Dojin Kagaku CO.)), color reaction was conducted in a CO2 incubator at 37° C. for 3 hours and the amount of the resulting water-soluble formazan was determined by absorbance at 450 nm where cell growth was measured from the synthesized amount of DNA. The result which was made into a graph is FIG. 13 (VY toxicity test). As a result, it was noted that there was no difference between their cell growths and that VY is non-toxic.

For “angiotensin II (DRVYIHPF; Angiotensin-2; UniProt P01019 25-32, looked up) [Ang II, angiotensin II, promotes VSMC growth via AT1 receptor, reference compound]”, which cell growth ([1]; Ang II alone 1 μM, FIG. 14) is on record?
Its cell growth is “growth was strongly promoted”.

Which cell growth ([2]; Bay K 8644 alone 1 μM, FIG. 18) does the source give for `COC(=O)C1=C(C)NC(C)=C([N+](=O)[O-])C1c1ccccc1C(F)(F)F` (stereo not shown) [Bay K 8644, reference compound] here?
The cell growth was “cell growth was promoted”.

How did the “influence of ACE inhibitor on Ang II stimulation (cell growth)” value ([1]; captopril 1 μM, FIG. 16) turn out when `C[C@H](CS)C(=O)N1CCC[C@H]1C(=O)O` [captopril, reference compound] was run?
The value was “did not show a suppressive action to Ang II stimulation”.

Which results are given for `CNCC(=O)N[C@@H](CCCN=C(N)N)C(=O)N[C@H](C(=O)N[C@@H](Cc1ccc(O)cc1)C(=O)N[C@H](C(=O)N[C@@H](Cc1cnc[nH]1)C(=O)N1CCC[C@H]1C(=O)N[C@@H](C)C(=O)O)C(C)C)C(C)C` [saralasin]?
cell growth ([3]; each 1 μM of Ang II and saralasin): the growth promotion effect was weak as compared with the case of sole use of saralasin; cell growth ([3]; saralasin alone, 10 μM): cell growth was promoted although that was not so significant as in the case of addition of Ang II

What does the source list for `CC(C)[C@H](N)C(=O)N[C@@H](Cc1ccc(O)cc1)C(=O)O` [VY, valyl-tyrosine] (H-Val-Tyr-OH)?
cell growth under Bay K 8644 stimulation ([2]; 1 μM of Bay K 8644 and 1 mM of VY, FIG. 18): suppressed cell growth promoting activity as same as in the case of addition of verapamil; dependency on concentration of VY to Bay K 8644 stimulation (cell growth) ([2]; 1 μM of Bay K 8644 with 0, 10 μM, 100 μM or 1 mM of VY, FIG. 19): suppressive effect to VSMC growth by Bay K 8644 stimulation in a concentration-dependent manner; cell growth (living cells counted) [4]: cell growth was suppressed in proportion to the added VY concentration; cell growth ([3]; each 1 μM of Ang II and saralasin and 1 mM of VY): no growth promoting effect was noted; toxicity (cell growth) [5]: non-toxic; cell growth under Ang II stimulation ([1]; Ang II 1 μM and VY 1 mM, FIG. 14): cell growth was not promoted; dependency of VY concentration to VSMC growth by Ang II stimulation ([1]; Ang II 1 μM, VY 0 μM, 1 μM, 10 μM, 100 μM and 1 mM, FIG. 15): suppressive effect to the growth of VSMC by Ang II stimulation in a concentration-depending manner

Which “cell growth under Bay K 8644 stimulation” value ([2]; each 1 μM of Bay K 8644 and verapamil, FIG. 18) does the source give for `COc1ccc(CCN(C)CCCC(C#N)(c2ccc(OC)c(OC)c2)C(C)C)cc1OC` (stereo not shown) [verapamil, reference compound] here?
Its value is “suppressed the cell growth promoting activity”.
